Results from the SangsterLogP compilation.

Structure (SMILES)	logP
COC(=O)CCCCc1ccc2c(c1O)C(=O)c1c(O)cccc1C2	4.97
COC(=O)C(C)c1ccc2c(c1O)C(=O)c1c(O)cccc1C2 (stereo not drawn)	4.16
O=C(O)CCc1ccc2c(c1O)C(=O)c1c(O)cccc1C2	3.78
COC(=O)CCc1ccc2c(c1O)C(=O)c1c(O)cccc1C2	4.55
COC(=O)C(CCc1ccccc1)c1ccc2c(c1O)C(=O)c1c(O)cccc1C2 (stereo not drawn)	5.17
COC(=O)CCCc1ccc2c(c1O)C(=O)c1c(O)cccc1C2	4.63
COC(=O)Cc1ccc2c(c1O)C(=O)c1c(O)cccc1C2	3.93
COC(=O)C(C)C(C)c1ccc2c(c1O)C(=O)c1c(O)cccc1C2 (stereo not drawn)	4.77
O=C(O)CCCc1ccc2c(c1O)C(=O)c1c(O)cccc1C2	3.91

The remaining lines, values ahead:

logP	Structure (SMILES)
3.4	CC(C(=O)O)c1ccc2c(c1O)C(=O)c1c(O)cccc1C2 (stereo not drawn)
4.11	O=C1c2c(O)cccc2Cc2ccc(C(Cc3ccccc3)C(=O)O)c(O)c21 (stereo not drawn)
4.22	O=C(O)CCCCc1ccc2c(c1O)C(=O)c1c(O)cccc1C2
3.9	CC(C(=O)O)C(C)c1ccc2c(c1O)C(=O)c1c(O)cccc1C2 (stereo not drawn)
4.33	O=C1c2c(O)cccc2Cc2ccc(C(CCc3ccccc3)C(=O)O)c(O)c21 (stereo not drawn)
5.34	COC(=O)CCCCCc1ccc2c(c1O)C(=O)c1c(O)cccc1C2
4.6	O=C(O)CCCCCc1ccc2c(c1O)C(=O)c1c(O)cccc1C2
5.22	COC(=O)c1ccc(C(=O)c2ccc3c(c2O)C(=O)c2c(O)cccc2C3)cc1
4.86	COC(=O)C(Cc1ccccc1)c1ccc2c(c1O)C(=O)c1c(O)cccc1C2 (stereo not drawn)
